The results in this text go back to patent EP0180416A2, “Benzoic acid analogues and their production” (Takeda Chemical Industries, Ltd., priority 1984, dated 1986).

The subject of data set [1] is synthetic leukotriene D4 (LTD4). The experiment in a line: Bronchoconstriction due to LTD4 in guinea pigs (Konzett-Rossler method). Format: in vivo, Guinea pigs of Hartley strain. Conditions: Cavia porcellus, 1 h; 50% inhibitory dose; oral, one hour before LTD4 (10 ug/kg i.v.); inhibition of overflow volume at maximal response; anesthetized guinea pigs; read-out: ID50(p.o.). The method, then: Guinea pigs of Hartley strain, both male and female, with body weights about 400 g were assigned to groups of 6 to 10 individuals, and the bronchoconstriction due to LTD4 was measured according to the method of Konzett-Rossler [Konzett, H. and ROssler, R.: Naunyn-Schmiedebergs Archiv far Experimentelle Pathologie und Pharmakologie 195, 71-74 (1940)]. Each guinea pig was fixed in a supine position under urethane anesthesia (1.5 g/kg, intraperitoneal) and the trachea was incised and connected to an artificial respiration apparatus, Rodent Respirator Model 680 [Harvard Apparatus Company, U.S.A.] via a cannula. The branch tube of this tracheal cannula was connected to a Bronchospasm Transducer Model 7020 [Ugobasil Biological Researach Apparatus, Italy]. Under the conditions of 4 to 7 ml of air per stroke, 70 strokes per minute and a lung loading pressure of 10 cm H2O, the volume of overflowing air was recorded on a Rectigraph-8S (Sanei Sokki Ltd., Japan) via a transducer. After administration of gallamine·triethiodide (1 mg/kg, i.v.), a solution of LTD4 in physiological saline (10 ug/kg) was intravenously administered and the bronchoconstriction elicited thereby was recorded for 15 minutes. The compound was used as suspended in a 5% solution of gum arabic or dissolved in water, and administered orally in a volume of 0.2 ml per 100 g body weight one hour before LTD4 loading. LTD4 was administered through a cannula inserted into the jugular vein. LTD4 was used as dissolved in physiological saline, which was taken from a stock stored in methanol (1 mg/l mℓ methanol) at -70°C.

For another data set, the system named is mice. The experiment in a line: Acute toxicity in mice. Conditions: 2000 mg/kg, male mice; for symptoms after oral administration (acute toxicity): suspended in 5% gum arabic; for autopsy findings: oral, autopsy after 7 days. Format: in vivo, mice of Jcl:ICR strain. The procedure:
Five 5-week-old male mice of Jcl:ICR strain, weighing about 30 g each, were used. Compound (I)-2 or (I)-4 was suspended in a 5% solution of gum arabic and administered orally at the level of 0.2 ml per 10 grams body weight.

Where a name gives a salt, the structure may show the parent alone.

As for `CCCc1c(OCCCOc2ccc(C(=O)OCCN3CCN(C)CC3)cc2Br)ccc(C(C)=O)c1O` [(I)-3, 2-(4-methyl-l-piperazinyl)ethyl 4-[3-(4-acetyl-3-hydroxy-2-propylphenoxy)propoxy]-3-bromobenzoate· dihydrochloride·monohydrate], the ED50 in data set [1] was 49 µmol/kg.
As for `CCCc1c(OCCCOc2ccc(C(=O)O)cc2Br)ccc(C(C)=O)c1O` [Control compound (A), 4-[3-(4-acetyl-3-hydroxy-2-propylphenoxy)propoxy]-3-bromobenzoic acid, reference compound], the ED50 in data set [1] came out at 146 µmol/kg.
As for `CCCc1c(OCCCOc2ccc(C(=O)OCCCN(C)C)cc2Br)ccc(C(C)=O)c1O` [(I)-4, 3-(N,N-dimethylamino)propyl 4-[3-(4-acetyl-3-hydroxy-2-propylphenoxy)propoxy]-3-bromobenzoate], the ED50 in data set [1] is 52 µmol/kg. Besides, in the data set with mice, the “symptoms after oral administration (acute toxicity)” value is “no symptoms” and the autopsy findings entry is “did not reveal any abnormalities”.
Consider `CCCc1c(OCCCOc2ccc(C(=O)OCCN3CCOCC3)cc2Br)ccc(C(C)=O)c1O` [(I)-2, 2-morpholinoethyl 4-[3-(4-acetyl-3-hydroxy-2-propylphenoxy)propoxy]-3-bromobenzoate], for which the ED50 in data set [1] was 41 µmol/kg. In the data set with mice, the “symptoms after oral administration (acute toxicity)” value is reported as “no symptoms” and the autopsy findings result is “did not reveal any abnormalities”.
As for `CCCc1c(OCCCOc2ccc(C(=O)OCCN(C)C)cc2Br)ccc(C(C)=O)c1O` [(I)-1, 2-(N,N-dimethylamino)ethyl 4-[3-(4-acetyl-3-hydroxy-2-propylphenoxy)propoxy]-3-bromobenzoate·hydrochloride·monohydrate], the ED50 in data set [1] is 49 µmol/kg.
